In patent US20090298169A1, “Pancreatic and Liver Endoderm Cells and Tissue by Differentiation of Definitive Endoderm Cells Obtained from Human Embryonic Stems” (The University of Georgia Research Foundation, priority 2006, published 2009):

Key:
[1] = test system: PI3-kinase signaling pathway; assay: Western blot analysis of PI3-kinase signaling pathway activity (phosphorylated PKB/Akt, S6 kinase, S6 protein); type: cell-based, human; settings: BG01 cells maintained in the presence of inhibitor
Method: Activity of the PI3-kinase signaling pathway may be assessed by Western blot analysis. Briefly, detergent extracts are prepared from untreated and treated cell cultures, separated by SDS-PAGE and blotted to nitrocellulose. Expression of active forms of the PI3-kinase intracellular targets PKB/Akt, S6 kinase and S6 protein are then determined by probing the nitrocellulose with appropriate antibodies to phosphorylated forms of each of these proteins. Generally, 30 μg of total protein are evaluated for each sample, primary incubations were carried out at a 1:1000 dilution of antibody, and binding in each case is detected by standard ECL based methodology.

[2] = test system: BG01 cells; assay: Flow cytometry of cell surface markers (CD9) on inhibitor treated BG01 cells; type: cell-based, human
Method: (§1) The inhibitor studies are performed as described in Example 2.
For flow cytometry, the BG01 cells are washed with 1×PBS and fixed in 2% paraformaldehyde/1×PBS for 10 minutes at room temperature. The cells are then washed in 1×PBS and approximately 2×10^5 cells are incubated with primary antibody diluted in 1% BSA/1×PBS. The primary antibodies used are anti-CD9 and anti-thrombomodulin (Cymbus Biotechnology), FITC conjugated mouse monoclonal antibodies at a 1:10 dilution. Cells are incubated at 4° C. for 30 minutes and then washed twice in 1×PBS. Where appropriate, cells are resuspended in a secondary antibody, anti-mouse Alexa-488 (Molecular Probes) diluted 1:1000 in 1% BSA/PBS, incubated at 4° C. for 30 minutes, and then washed twice in 1×PBS. Cells are resuspended in 1% BSA/1×PBS and surface expression is analyzed using a Beckman Coulter FC500.

[3] = test system: BG01 cells; assay: Morphology of BG01 hES cells cultured with PI3-kinase pathway inhibitors (standard microscopy); type: cell-based, human
Method: BG01 cells are passaged from feeders using the collagenase/trypsin method and are plated on matrigel coated dishes at 1×10^5 cells/35 mm dish in conditioned medium (CM; MEF conditioned medium plus 8 ng/ml bFGF). After approximately 24 hours, the media is replaced with fresh CM, CM with inhibitor (resuspended in EtOH), CM with EtOH, or with Spontaneous Differentiation medium (hES medium minus bFGF).
In alternative methods, the BG01 cells may be plated at different concentrations prior to contact with CM, CM with inhibitor and CM with EtOH Cells may be plated at the following concentrations: approximately 5×10^4 cells/35 mm dish, approximately 1×10^5 cells/35 mm dish, approximately 2×10^5 cells/35 mm dish, approximately 4×10^5 cells/35 mm dish and, approximately 6×10^5 cells/35 mm dish.
The inhibitor LY 294002 (Biomol) may be preferably used at the concentration range approximately 20-163 μM and the inhibitor Rapamycin (Calbiochem) is used at the concentration range approximately 1.5-30 nM. LY 294002 inhibits the PI3-kinase pathway by binding to the ATP docking site of p110. Rapamycin inhibits a subset of the PI3-kinase pathway by inhibiting mTOR (mammalian target of rapamycin).
Cells are grown in these conditions for approximately 72 hours with a medium change every 24 hours. Cells are harvested using the collagenase/trypsin method for flow cytometry and RT-PCR analysis and are scraped for biochemical analysis.
In undifferentiated cultures, individual cells are not easily discernable, being relatively small, irregular and without clearly apparent intercellular junctions at higher density. […] Individual cells are also more readily discernable at higher densities since discrete intercellular adhering junctions are evident between neighboring cells.

[4] = test system: BG01 cells; assay: RT-PCR analysis of differentiation markers in inhibitor treated BG01 cells; type: cell-based, human
Method: as §1
Total RNA is isolated using TRIzol Reagent (GibcoBRL). RNA is run on a 1% agarose gel containing ethidium bromide and visualized using the AlphaImager™ 2200 Documentation and Analysis System to ensure RNA integrity. 10 μg of RNA is treated with DNase (Ambion), which is removed with DNase Inactivation Reagent (Ambion). cDNA is prepared with 500 ng of total RNA using the Superscript II Reverse transcriptase Kit (Invitrogen) using oligo(dT) primers. PCR reactions are carried out on 1 μl of cDNA. PCR products are run on a 2% agarose gel containing ethidium bromide and visualized using the Alphaamager™ 2200 Documentation and Analysis System. PCR primer sets used were GATA4, Mix1, Msx1, AFP, HNF4alpha, eHAND, Nanog, AFP and GAPDH.

[5] = test system: human definitive endoderm cells (DE); assay: Pancreatic endoderm formation from definitive endoderm with retinoic acid in FCS base media (Pdx1, Isl1 markers); type: cell-based
Method: BG01 hESCs were treated with LY 294002 (50 μM) for four days then switched to media containing DMEM/F12, 10% FCS, 50 ng/ml Fgf10 and 2 μM retinoic acid for up to four days. Untreated-untreated hESCs. Transcript levels were analyzed by QRT-PCR in triplicate and shown as the fold-increase over untreated samples (hESCs) after normalization to GAPDH reference transcript. Fold-induction of Pdx1 transcript levels are indicated.
BG01 hESCs were treated with LY 294002 (50 μM) for four days then switched to media consisting of DMEM/F12, 10% FCS, 50 ng/ml Fgf10 and 2 μM retinoic acid for up to four days. Untreated: untreated hESCs. Transcript levels were analyzed by QRT-PCR in triplicate and shown as the fold-increase over untreated samples (hESCs) after normalization to GAPDH reference transcript.
The present invention relates to pancreatic endoderm cells (PE) which are obtained from definitive endoderm cells by exposing the definitive endoderm cells to an effective concentration of retinoic acid (at least about 0.05-0.1 μg/ml, preferably about 0.1-25 μg/ml, more preferably about 0.1-2.0 μg/ml) in base media comprising an effective amount of fetal calf serum (FCS— preferably about 10% of the base media plus serum) for a period of at least about 2 days, preferably at least about 4 days, and more preferably about 4 days, followed by exposing the cells obtained from the first step to FCS (preferably, about 10%) in base media for at least one day, preferably at least about 2 days in the absence of retinoic acid. This method preferably results in at least about 35-50% and preferably at least about 70-80+% of the cells in the treated sample expressing the pancreatic endoderm markers, Pdx1 and Isl1.
Definitive endoderm cells (from treatment above) are washed 2× with PBS. 2-3 ml Trypsin/EDTA solution is added and cells are triturated and collected in a 15 ml conical tube. DMEM/F12 with 10% FBS is added to stop the trypsinization and the cells are centrifuged at 200×g for 5 minutes. […]

[6] = test system: BG01 hESCs; assay: AFP transcript induction (QRT-PCR) following treatment of definitive endoderm; type: cell-based, human; settings: DE from LY 294002 (50 μM, four days), then DMEM/F12, 10% FCS up to six more days, presence or absence of Fgf10
Method: BG01 hESCs were differentiated into definitive endoderm for four days following the addition of LY 294002 (50 μM). Media was changed to DMEM/F12, 10% FCS and cells grown for up to six more days. Untreated: untreated hESCs. AFP transcript levels were analyzed by QRT-PCR in triplicate and shown as the fold-increase over untreated samples (hESCs) after normalization to GAPDH reference transcript.
The first example relates to the generation of cells expressing the embryonic liver marker alphafetoprotein (AFP) following treatment of definitive endoderm. BG01 hESCs were differentiated into definitive endoderm for four days following the addition of LY 294002 (50 μM). Media was changed to DMEM/F12, 10% FCS and cells grown for up to six more days. Untreated: untreated hESCs. AFP transcript levels were analyzed by QRT-PCR in triplicate and shown as the fold-increase over untreated samples (hESCs) after normalization to GAPDH reference transcript.

O=c1cc(N2CCOCC2)oc2c(-c3ccccc3)cccc12 [LY 294002, 2-(4-Morpholinyl)-8-phenyl-4H-1-benzopyran-4-one]
activity of Akt [1]: inhibited
activity of S6 [1]: inhibited
activity of S6 kinase [1]: inhibited
cell surface CD markers expressed by undifferentiated hES cells (CD9, 27, 30, 46, 58 and 81) ([2]; after LY treatment): loss of a subset of cell surface CD markers
expression of CD9 ([2]; compared with spontaneous differentiation in adherent culture or embryoid bodies): may decrease more rapidly
cell spreading and morphology after treatment ([3]; BG01 cells after treatment, compared with undifferentiated cultures): marked spreading and adopted obvious epitheloid cuboidal morphologies
changes in morphology at high plating density ([3]; cells plated at approximately 4×10^5 cells/35 mm dish or higher): do not demonstrate the same morphological changes
changes in morphology at low plating density ([3]; cells plated lower than approximately 2×10^5 cells/35 mm dish): display changes in morphology
morphological change of BG01 cells ([3]; cultured in the presence of inhibitor, matrigel, conditioned medium, approximately 72 hours): undergo morphological change
markers indicative of early differentiation [4]: may be detected

CC1=C(/C=C/C(C)=C/C=C/C(C)=C/C(=O)O)C(C)(C)CCC1 [retinoic acid, all-trans retinoic acid]
homogeneity of differentiated cells ([5]; definitive endoderm cells cultured with retinoic acid in basal cell media): greater homogeneity than spontaneously differentiated cells
Isl1 expression ([5]; following treatment): marked increase
population of cells pure for the PE markers Pdx1 and Isl1 ([5]; from definitive endoderm cells): 70-80%

B1: Fgf10: fibroblast growth factor 10 (protein, UniProt O15520 38-208, looked up)
Fibroblast growth factor 10: QALGQDMVSPEATNSSSSSFSSPSSAGRHVRSYNHLQGDVRWRKLFSFTKYFLKIEKNGKVSGTKKENCPYSILEITSVEIGVVAVKAINSNYYLAMNKKGKLYGSKEFNNDCKLKERIEENGYNTYASFNWQHNGRQMYVALNGKGAPRRGQKTRRKNTSAHFLPMVVHS
AFP induction [6]: optimal AFP induction
